Test results taken from patent US20130237582A1, “PHARMACEUTICAL COMBINATION OF PACLITAXEL AND A CDK INHIBITOR” (Piramal Enterprises Limited, priority 2010, published 2013).

Legend:
[1] = tested on: BT-549; test: Cytotoxicity assay using propidium iodide (PI); type: cell-based; settings: Homo sapiens, 48 h treatment
Experimental: (§1) The propidium iodide fluorescence assay (PI) was carried out according to the procedure mentioned in Anticancer Drugs, 1995, 6, 522-32. The assay was developed to characterize the in vitro growth of human tumor cell lines as well as to test the cytotoxic activity of the compounds. Propidium iodide (PI) was used as a dye, which penetrates only damaged cellular membranes. Intercalation complexes are formed by PI with double-stranded DNA, which effect an amplification of the fluorescence. After freezing the cells at −20° C. for 24 h, PI had access to total DNA leading to total cell population counts. Background readings were obtained from cell-free wells containing media and propidium iodide. The human breast cancer cell lines (i.e. […] Control wells were treated with vehicle (DMSO). At the end of the incubation periods, the plates were assayed using PI cytotoxicity assay protocol. Percent cytoxicity was calculated at various drug concentrations and from the graph plotted the IC50 values were determined.

[2] = tested on: HBL-100; test: Cytotoxicity assay using propidium iodide (PI); type: cell-based; settings: Homo sapiens
Experimental: as §1

[3] = tested on: MDA-MB-361; test: Cytotoxicity assay using propidium iodide (PI); type: cell-based; settings: Homo sapiens
Experimental: as §1

[4] = tested on: MDA-MB-435-S; test: Cytotoxicity assay using propidium iodide (PI); type: cell-based; settings: Homo sapiens
Experimental: as §1

[5] = tested on: T47-D; test: Cytotoxicity assay using propidium iodide (PI); type: cell-based; settings: Homo sapiens, T47D
Experimental: as §1

[6] = tested on: ZR-75-1; test: Cytotoxicity assay using propidium iodide (PI); type: cell-based; settings: Homo sapiens
Experimental: as §1

[7] = tested on: all the breast cancer cell lines; test: PI assay, summary over the breast cancer cell line panel; type: cell-based; settings: Homo sapiens; nine breast cancer cell lines of Table 1B; read-out: IC50 range over all the breast cancer cell lines
Experimental: as §1

[8] = tested on: MDA-MB-231, MDA-MB-468 and MCF-7 cell lines; test: Clonogenic assay or colony forming assay; type: cell-based, human; settings: IC10, IC30, IC50 for 48 h, then 14 days drug-free
Experimental: MDA-MB-231, MDA-MB-468 and MCF-7 cell lines were seeded in RPMI 1460 with 10% FCS, at a density of 1500 cells/well in six well plates. […] The medium was removed at the end of the treatment and incubated in fresh medium (without drug) for 14 days. After 14 days the medium was aspirated and colonies were fixed with methanol and acetic acid mixture in the proportion of 2:1, rinsed with water and the fixation procedure was repeated. The plates were dried and colonies stained with 0.1% crystal violet for 5 min. The wells were finally rinsed with water and dried.

[9] = tested on: MDA-MB-468; test: Cell cycle progression and apoptosis by flow cytometry (sub-G1); type: cell-based, human
Experimental: Before analysis, cells were washed twice with PBS to remove the fixative and re-suspended in PBS containing 50 μg/mL propidium iodide and 50 μg/mL RNaseA. After incubation at room temperature (20-35° C.) for 20 min, cells were analyzed using flow cytometry. A Becton Dickinson FACS Calibur flow cytometer (BD, USA) was used for these studies. The argon ion laser set at 488 nm was used as an excitation source. Cells with DNA content between 2n and 4n were designated as being in G1, S and G2/M phases of the cell cycle, as defined by the level of red fluorescence. […] The number of cells in each cell cycle compartment was expressed as a percentage of the total number of cells present. The results are shown in Table 3 and graphically presented in FIG. 3A (MCF-7 cell lines) and FIG. 3B (MDA-MB-231 cell lines).
Comparison of the effect of Compound A and PARP inhibitor BSI-201 (Iniparib developed by Sanofi-Aventis. BSI-201 is prepared in-house) on cell cycle progression and apoptosis was evaluated in two TNBC cell lines. The asynchronous human TNBC cell lines MDA-MB-231 and MDA-MB-468 were seeded in […] tissue culture flask at a density of 0.5×10^6 cells per flask in RPMI 1460 with 10% FCS. After 24 h, cells were treated either with 1.5 and 3.0 μM of Compound A or 50 μM of PARP inhibitor BSI-201 for 72 h. After the incubation cells were harvested (trypsinised) and processed as given in example 6.

[10] = target: T1, CDK4-D1 (Cyclin D1 and CDK4) (Homo sapiens, UniProt P11802); test: CDK4 kinase activity after immunoprecipitation from MCF-7 cells; type: cell-based; settings: synchronized MCF-7; 1.5 μM; 3, 6, 9 and 12 h
T1 construct: endogenous in cells; host or cells: MCF-7 (serum-starved, synchronized)
T1 sequence (P11802 2-303 limits assumed): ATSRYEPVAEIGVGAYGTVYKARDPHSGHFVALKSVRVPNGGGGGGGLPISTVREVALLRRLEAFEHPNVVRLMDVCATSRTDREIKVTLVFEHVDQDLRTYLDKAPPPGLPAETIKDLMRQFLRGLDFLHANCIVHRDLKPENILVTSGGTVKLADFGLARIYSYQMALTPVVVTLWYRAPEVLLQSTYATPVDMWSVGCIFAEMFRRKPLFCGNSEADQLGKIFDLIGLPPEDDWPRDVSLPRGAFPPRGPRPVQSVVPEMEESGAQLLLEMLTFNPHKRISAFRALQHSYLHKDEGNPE
T1 sequence (P24385 whole entry partner): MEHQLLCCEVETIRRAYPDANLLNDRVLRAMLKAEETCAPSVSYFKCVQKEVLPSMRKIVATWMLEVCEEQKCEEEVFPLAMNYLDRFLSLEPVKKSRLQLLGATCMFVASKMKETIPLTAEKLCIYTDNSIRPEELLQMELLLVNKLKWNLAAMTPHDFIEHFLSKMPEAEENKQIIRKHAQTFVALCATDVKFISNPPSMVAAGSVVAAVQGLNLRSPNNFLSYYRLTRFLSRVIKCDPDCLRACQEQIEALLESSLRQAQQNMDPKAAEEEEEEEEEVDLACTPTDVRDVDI
Experimental: For immunoprecipitation assay, the MCF-7 cells were synchronized by serum starvation. These cells were treated with Compound A at 1.5 μM at various time points viz. 3 h, 6 h, 9 h and 12 h. Cells were harvested (trypsinised) and lysed using lysis buffer, and protein content was estimated. CDK4-D1 (Cyclin D1 and CDK4) was purified from the lysate by immunoprecipitation using specific antibody to CDK4. Immune complex was further purified using Protein A sepharose beads (Sigma Aldrich, USA). Immune complex was used to determine CDK4 activity using pRb as a substrate and ^32P labelled ATP (BRIT, India). Reaction mixed was applied to SDS-PAGE followed by transfer and autoradiography.

[11] = tested on: HUVEC; test: Endothelial cell tube formation assay; type: cell-based, human
Source text: The Tube Formation Assay represents a simple but powerful model for studying inhibition and induction of angiogenesis. The assay relies on the endothelial cells' ability to form distinct blood-vessel like tubules in an extracellular matrix (BD Matrigel™ Matrix, USA) where they can subsequently be visualized by microscopy. It enables analysis of angiogenic tubules in a 3 dimensional matrix that better resembles the native physiological environment.
Confluent HUVEC (Human umbilical vein endothelial cells) were cultured with above mentioned endothelial medium to desired confluence. For HUVEC 60-80% confluence is recommended.
Endothelial cell suspensions were prepared by trypsinizing the cell monolayers and resuspending the cells in culture medium with 5-10% serum. (0.5−1)×10^6 cells per 180 μL of cell suspension were added (per well of 24 well plate) to the medium (BD Matrigel Matrix) which, had been thawed at 4° C. This suspension was then added to the plates and kept for incubation. The cells were allowed to adhere for 2-3 h and then Compound A (1 μM), Rotenone (1 μM) (Sigma-Aldrich, USA) and Topotecan (3 μM) (Sigma-Aldrich, USA) (20 μL of 10× stocks) were added to the respective wells. DMSO was used as the control. After 24-48 h of incubation the cells were observed under a phase contrast microscope (Zeiss Axio Observer, Germany) for tube formation and angiogenesis.

`CN1CC[C@@H](c2c(O)cc(O)c3c(=O)cc(-c4ccccc4Cl)oc23)[C@@H]1CO.Cl` [Compound A, (+)-trans-2-(2-Chloro-phenyl)-5,7-dihydroxy-8-(2-hydroxymethyl-1-methyl-pyrrolidin-3-yl)-chromen-4-one hydrochloride] gave an IC50 [1] of 0.8 µM, an IC50 [2] of 0.51 µM and an IC50 [3] of 0.75 µM. For the same molecule, the IC50 [4] was 0.3 µM, the IC50 [5] was 0.5 µM and the IC50 [6] was 0.9 µM. For the same molecule, the IC50 [7] was 0.3 to 1 µM, the colony forming potential [8] was “inhibit the colony forming potential in a dose dependent manner” and the “% apoptosis at 72 h” value ([9]; 1.5 μM) was 36.09%. For the same molecule, the “% apoptosis at 72 h” value ([9]; 3 μM) was 62.5%, the CDK4 kinase activity [10] was “Decrease in CDK4 kinase activity in cell-based assay was seen as early as 3 h onwards” and the “tube formation inhibition compared with standards” value ([11]; 1 μM vs Rotenone 1 μM and Topotecan 3 μM) was “comparable to Rotenone (standard VEGF inhibitor) and better than Topotecan”. The endothelial tube formation ([11]; HUVEC in Matrigel, 1 μM, 24-48 h) was “effectively inhibited endothelial tube formation”.
